Entries after “also recorded” stand apart in the source; their conditions may differ.
Tests used:
[1] = tested on: serovar L2 of the Chlamydia trachomatis LGV biovar, serovar D of the trachoma biovar, Chlamydia muridarum; test: Abnormal inclusions in different host cell types, serovars and Chlamydia species; type: cell-based; conditions: THP-1, RL95-2, HeLa, C. muridarum, penicillin G at 3 hpi
Excerpt: In blue in the original figure; Hoechst, in green in the original figure: anti-Chlamydia sp. Image taken at 24 hpi (RL95-2/Chlamydia L2; HeLa/Chlamydia-D; HeLa/C. muridarum) or at 48 hpi (THP-1/Chlamydia-L2; THP-1/Chlamydia-D). Scale: 10 μm.
In order to examine whether the effects of penicillin G on bacterial infectivity depend on the strain or the serovar, ATCC serovar L2 and C. trachomatis serovar D, graciously provided by Dr. de Barbeyrac (University of Bordeaux II, Bordeaux, France) were used. C. muridarum was obtained from Dr. Roger Rank (University of Arkansas, Little Rock, Ark., USA). The bacteria were propagated as a matter of routine in HeLa cells as described above and stored at −80° C. before use (Scidmore, M. A. Curr Protoc Microbiol Chapter 1: Unit 11A 11, 2005). The number of inclusion forming units (IFU) was determined by immunofluorescence, as described above (Verbeke, P. et al. PLoS Pathog 2:e45, 2006).
To examine the effects of penicillin G on cell infection with Chlamydia, the host cells were cultivated up to 70% confluence without antibiotics, and then were infected with C. trachomatis strain L2 or D, or with C. muridarum at 1 IFU. The infections were carried out at 37° C. for 90 minutes with centrifugation, followed by a washing of extracellular bacteria. […]

[2] = tested on: HeLa cells infected with Chlamydia trachomatis; test: Sensitivity to apoptosis of infected cells (staurosporine); type: cell-based
Method: A: HeLa cells were infected with Chlamydia trachomatis and treated or not treated with penicillin G at 3 hpi. At 21 hpi, staurosporine was added to the culture medium. The cells were fixed at 48 hpi and stained with an antibody against Chlamydia sp. (green in the original figure) and Hoechst (blue in the original figure).
B: Normal or apoptotic nuclei associated with inclusions were counted and the percentage of infected cells in apoptosis was calculated.
HeLa cells were infected in the absence (white bar) or presence of penicillin G (100 U/ml) added at […] (light gray bar) or at 29 hpi (dark gray bar). Staurosporine was added at 31 hpi. The cells were fixed and observed as described below. The apoptotic or normal nuclei associated with inclusions were counted, and the percentages of apoptotic infected cells were determined. In 2 hours, treatment with penicillin G induces a loss of control by Chlamydia trachomatis over host cell apoptosis.
The effect of treatment with penicillin G on the anti-apoptotic activity of Chlamydia was determined. HeLa cells cultured in monolayers on slides were infected with serovar L2 and treated with penicillin G at 3 hpi or 29 hpi. At 25 hpi or 32 hpi, respectively, the cells were incubated with 1 μM staurosporine, fixed at 40 hpi or 48 hpi and prepared for epifluorescence microscopy. The percentages of infected cells containing apoptotic nuclei were calculated.

[3] = tested on: Chlamydia trachomatis inclusions; test: Fusion of lysosomes with inclusions (cathepsin D, LysoTracker, confocal microscopy); type: cell-based
[4] = tested on: persistent forms of Chlamydia; test: Penicillin G on persistent infection induced by IFN-γ; type: cell-based, Chlamydia trachomatis
Method: HeLa cells cultured in monolayers on slides were infected with serovar L2 with an IFU of 1, as described above (Verbeke, P. et al. PLoS Pathog 2:e45, 2006). Three hours after the infection, the medium was removed and replaced with culture medium containing 500 IU/ml (final concentration) recombinant human IFN-γ. The infected cells were incubated for an additional 100 hours in the presence of IFN-γ before being prepared for confocal microscopy as described below.
HeLa cells cultured in monolayers on slides were infected with Chlamydia trachomatis serovar L2 and treated with penicillin G, as described above. Twenty hours after infection, the culture was washed and the medium replaced with medium free of penicillin G. Between 48 and 100 hpi, the cells and the culture medium were collected at various intervals and a titration test was performed according to the method of the prior art (Scidmore, M. A. Curr Protoc Microbiol Chapter 11: Unit 11A 11, 2005). To determine whether treatment with penicillin G could affect bacterial persistence, HeLa cells infected with L2 and treated with IFN-γ and penicillin G (500 IU/ml) from 48 hpi (i.e. 24 hours after treatment with IFN-γ) to 72 hpi (i.e. 48 hours after treatment with IFN-γ). The slides were then fixed and observed using an epifluorescence microscope (Leica D M, Leica, Mannheim, Germany) equipped with two sets of detection filters (Hoechst 360/40 nmBP-425 nmLP; FITC 480/40 nmBP-527/30 nmBP) and connected to a CCD camera CCC.
The effects of penicillin G were tested on persistent infections. Cells were infected and then treated with IFN-γat 3 hpi. Once the appearance of persistent inclusions was observed under the microscope, penicillin G was added to the infected cells cultured in the presence of IFN-γ.

Chlamydia muridarum = test: Murine model of genital infection (hydrosalpinx); type: in vivo, C57B1/6 mice; conditions: 5 mg/ml in drinking water for 20 days from day 10, read 60 days later
Excerpt: The mice were infected by vaginal route with 10^7 IFU of Chlamydia muridarum. […] The antibiotic treatment was stopped after 20 days and the mice were kept isolated for an additional 60 days. The mice were then sacrificed, the appearance of the genital tract analyzed and the presence of hydrosalpinx (arrows) sought.
C57B1/6 mice were infected with Chlamydia muridarum, a Chlamydia species that infects mice and guinea pigs and is genetically close to Chlamydia trachomatis. Estrous cycles in the mice were initiated by injection of progesterone, and then the mice were infected vaginally after 3 days (10^7 IFU). Ten days after infection, the mice were divided into three groups, a negative control group not receiving any antibiotic, a positive control group receiving doxycycline (5 mg/ml) and a test group receiving penicillin G (5 mg/ml). The duration of the treatment was 20 days; the antibiotics, doxycycline and penicillin G, were added to the mice's drinking water. After treatment, the mice were kept isolated for 60 days in order for persistent bacteria to reinitiate their cycle and for sequelae to develop. The mice were then sacrificed, the appearance of the genital tract analyzed and the presence of hydrosalpinx sought. Various organs were also taken.
The effects of penicillin G were tested in a murine model of genital infection. […]

## CC1(C)S[C@@H]2[C@H](NC(=O)Cc3ccccc3)C(=O)N2[C@H]1C(=O)O [Penicillin G, benzylpenicillin]
[1]
  generation of abnormal inclusions in other host cells, serovars, species: independent of the type of host cell, serovar, biovar or even species of Chlamydia bacterium used; also recorded: exhibiting abnormal inclusions
[2]; penicillin G 100 U/ml at 29 hpi, staurosporine at 31 hpi
  speed of loss of control over host cell apoptosis: ≤ 2 h
[2]; penicillin G at 2 hpi or 29 hpi, staurosporine at 31 hpi, observed 8 hours later
  apoptotic cells: Roughly 38%
[2]; penicillin G, 4 μM staurosporine at 21 hpi, read at 48 hpi
  infected cells showing signs of apoptosis: 70.39%
[3]; HeLa, 24 hpi
  localization of cathepsin D in inclusions: the majority of the abnormal bacterial forms contained cathepsin D
[3]; RL95-2 cells/serovar L2 or HeLa cells/serovar D
  cathepsin D in abnormal inclusions of other cell/serovar pairs: also contain cathepsin D
[3]; confocal videomicroscopy
  LysoTracker-stained compartments and inclusions: compartments stained with LysoTracker probes enter abnormal inclusions
[4]; cells kept in IFN-γ
  inclusion growth of persistent inclusions after addition of penicillin G: Rapid reinitiation of inclusion growth
[4]; persistent infection
  infectivity of bacteria released on lysis: noninfectious
[4]; persistent infection, IFN-γ present
  time of cell lysis after start of treatment: 70 h
[4]; twenty-four hours after addition of penicillin G
  cathepsin D in bacterial forms of persistent infection: most of the abnormal bacterial forms contained cathepsin D
Chlamydia muridarum
  appearance of the genital tract / hydrosalpinx: normal appearance

From patent US20130053336A1, “TREATMENT OF CHLAMYDIACEAE INFECTIONS BY MEANS OF BETA-LACTAMS” (priority 2010, published 2013)
